Laboratory results published in patent US20150366191A1, “ANTIMICROBIAL METHOD BY BLOCKING MANNITOL METABOLISM AND ANTIMICROBIAL COMPOSITION CONTAINING MANNITOL METABOLIC INHIBITOR” (Research & Business FOUNDATION SUNGKYUNKWAN UNIVERSITY, priority 2014, published 2015).

Legend:
M1PDH = M1PDH (Staphylococcus aureus, UniProt P99140); test: in vitro M1PDH enzymatic assay (NADH optical density at 340 nm); assay type: biochemical; conditions: fructose-6-phosphate and NADH, or Mtl-1-phosphate and NAD as substrates
From the text: To measure an in vitro M1PDH enzyme activity, a change in concentration of NADH according to an enzyme activity was observed through a change in optical density at 340 nm using fructose-6-phosphate and NADH, or Mtl-1-phosphate and NAD as substrates.

[1] = tested on: bacteria infected into macrophages; test: macrophage infection model, viability of bacteria in the presence of mannitol; assay type: cell-based, Staphylococcus aureus; conditions: compound and mannitol used together; after 18 hours of infection
From the text: In addition, to confirm an inhibitory effect in a host cell, a macrophage infection model was used.

bacteria [2] = test: viability of bacteria by optical density at 600 nm; assay type: cell-based; conditions: change in concentration of the compound; OD 600 nm
mannitol metabolism = mannitol metabolism inhibition, phenol red colour change in mannitol medium; assay type: cell-based; conditions: medium containing 27 mM of mannitol and phenol red
Procedure: When bacteria were cultured in a medium containing 27 mM of mannitol and phenol red, the mannitol was metabolized to produce fructose and reduce pH of the medium, thereby changing a color of the phenol red to yellow. However, since the phenol red was not changed in color to keep the medium red by inhibiting the mannitol metabolism, an inhibitor showing an mannitol metabolism inhibitory effect was found using such a principle (FIG. 11A).

bacteria [3] = test: chemical toxicity assay (growth of bacteria); assay type: cell-based

Row | Structure (SMILES) | inhibition of M1PDH activity (M1PDH) | SA viability in macrophages [1] | viability of bacteria (bacteria [2]) | mannitol metabolism inhibitory effect (mannitol metabolism) | inhibition of growth of bacteria (bacteria [3])
1 | Cc1c(O)c(O)cc2c1CC=C1[C@@]2(C)CC[C@@]2(C)C3C[C@](C)(C(=O)O)CC[C@]3(C)CC[C@]12C (stereo partly drawn) [Compound 5, (2R,4aS,6aS,6aS,14aS,14bR)-10,11-dihydroxy-2,4a,6a,6a,9,14a-hexamethyl-3,4,5,6,8,13,14,14b-octahydro-1H-picene-2-carboxylic acid] | inhibiting an activity of M1PDH | decrease in SA viability in a macrophage | decrease in viability |  | 
2 | Cc1nn(-c2ccccc2)c2c1C(c1ccc([N+](=O)[O-])cc1)C(C#N)=C(N)O2 (stereo not drawn) [Compound 10, 6-amino-3-methyl-4-(4-nitrophenyl)-1-phenyl-1,4-dihydropyrano[2,3-c]pyrazole-5-carbonitrile] | inhibited M1PDH activity |  |  | inhibiting only the mannitol metabolism | not inhibiting growth of bacteria
3 | COc1nc(NC(=O)NS(=O)(=O)c2ccccc2C(F)(F)F)nc(C23CC4CC(CC(C4)C2)C3)n1 [Compound 26, 2-(1-adamantyl)-4-methoxy-6-{[({[2-(trifluoromethyl)phenyl]sulfonyl}amino)carbonyl]amino}-1,3,5-triazine] | inhibited M1PDH activity |  |  | inhibiting only the mannitol metabolism | not inhibiting growth of bacteria
4 | Nc1c(-c2ccc3ccccc3n2)c2ccc([N+](=O)[O-])cc2c(=O)n1Cc1ccccc1 [Compound 27, 3-amino-2-benzyl-7-nitro-4-(2-quinolyl)-1,2-dihydroisoquinolin-1-one] | inhibited M1PDH activity |  |  | inhibiting only the mannitol metabolism | not inhibiting growth of bacteria
5 | O=C(NC(=O)c1ccc(Oc2ccc(Cl)cc2)c([N+](=O)O)c1)Nc1ccccc1C(F)(F)F [Compound 31, N-[4-(4-chlorophenoxy)-3-nitrobenzoyl]-N′-[2-(trifluoromethyl)phenyl]urea] | inhibited M1PDH activity |  |  | inhibiting only the mannitol metabolism | not inhibiting growth of bacteria
